Source: the NIST ThermoML archive (doi:10.1016/j.fluid.2014.05.036)
Numbers after ± are expanded uncertainties.

Experiments:
[1] = Crystal; DTA
[2] = Molar enthalpy of transition or fusion; conditions: Crystal; DSC

Normal melting temperature [1] [°C]	Molar enthalpy of transition or fusion [2] [kcal/mol]	Compound
96.40 ± 0.5	6.34 ± 0.182	CCCOC(=O)c1ccc(O)cc1 [propyl 4-hydroxybenzoate]
115.50 ± 0.5	6.16 ± 0.179	CCOC(=O)c1ccc(O)cc1 [ethyl 4-hydroxybenzoate]
